What was measured:
Assay in all cases: relative viability (nuclei count vs DMSO), 5 days (fraction); higher = more cells survive
NCI-H1648 = tested on: NCI-H1648
Procedure, shortened: (§1)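 Lung cancer cell lines were pin-tool dosed in 1536-well plates on the day after seeding, with either a lone drug or a fixed anchor-drug dose plus five library-drug doses (not always all listed) in √10 steps. Nuclei were counted on 4× images after 5 days. Relative viability is the ratio of treated-well to vehicle-well nuclei counts, with each value a median of duplicate plates.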

SW 900 = tested on: SW 900
Procedure, shortened: as §1

NCI-H1623 = tested on: NCI-H1623
Procedure, shortened: as §1

NCI-H522 = tested on: NCI-H522
Procedure, shortened: as §1

NCI-H2342 = tested on: NCI-H2342
Procedure, shortened: as §1

NCI-H1703 = tested on: NCI-H1703
Procedure, shortened: as §1

NCI-H1563 = tested on: NCI-H1563
Procedure, shortened: as §1

EBC-1 = tested on: EBC-1
Procedure, shortened: as §1

NCI-H1299 = tested on: NCI-H1299
Procedure, shortened: as §1

A549 = tested on: A549
Procedure, shortened: as §1

IA-LM = tested on: IA-LM
Procedure, shortened: as §1

Calu-6 = tested on: Calu-6
Procedure, shortened: as §1

O=C(O)CCCCC(CCSCc1ccccc1)SCc1ccccc1 (stereo unspecified) [CPI-613] + Cc1cc(Nc2cc(N3CCN(C)CC3)nc(Sc3ccc(NC(=O)C4CC4)cc3)n2)n[nH]1 [Tozasertib] (partner 0.1 µM)
relative viability (NCI-H1648; first compound 5 µM): 0.473
relative viability (NCI-H1648; first compound 15.81 µM): 0.312
relative viability (NCI-H1648; first compound 50 µM): 0.589
relative viability (NCI-H1648; first compound 500 µM): 0.391
relative viability (SW 900; first compound 5 µM): 0.511
relative viability (SW 900; first compound 15.81 µM): 0.557
relative viability (SW 900; first compound 50 µM): 0.473
relative viability (SW 900; first compound 158.11 µM): 0.199
relative viability (SW 900; first compound 500 µM): 0.0732
relative viability (NCI-H1623; first compound 5 µM): 0.442
relative viability (NCI-H1623; first compound 15.81 µM): 0.387
relative viability (NCI-H1623; first compound 50 µM): 0.421
relative viability (NCI-H1623; first compound 158.11 µM): 0.417
relative viability (NCI-H1623; first compound 500 µM): 0.426
relative viability (NCI-H522; first compound 5 µM): 0.512
relative viability (NCI-H522; first compound 15.81 µM): 0.563
relative viability (NCI-H522; first compound 50 µM): 0.573
relative viability (NCI-H522; first compound 158.11 µM): 0.419
relative viability (NCI-H522; first compound 500 µM): 0.325
relative viability (NCI-H2342; first compound 5 µM): 0.523
relative viability (NCI-H2342; first compound 15.81 µM): 0.527
relative viability (NCI-H2342; first compound 50 µM): 0.511
relative viability (NCI-H2342; first compound 158.11 µM): 0.484
relative viability (NCI-H2342; first compound 500 µM): 0.625

O=c1[nH]c2ccccc2n1C1CCN(CCCC(c2ccc(F)cc2)c2ccc(F)cc2)CC1 [Pimozide] + COc1cc2c(Oc3ccc(NC(=O)C4(C(=O)Nc5ccc(F)cc5)CC4)cc3F)ccnc2cc1OCCCN1CCOCC1 [Foretinib] (partner 0.25 µM)
relative viability (NCI-H1703; first compound 0.08 µM): 0.394
relative viability (NCI-H1703; first compound 0.253 µM): 0.272
relative viability (NCI-H1703; first compound 0.8 µM): 0.375
relative viability (NCI-H1703; first compound 2.53 µM): 0.37
relative viability (NCI-H1703; first compound 8 µM): 0.336
relative viability (NCI-H1563; first compound 0.08 µM): 0.969
relative viability (NCI-H1563; first compound 0.253 µM): 0.849
relative viability (NCI-H1563; first compound 0.8 µM): 0.832
relative viability (NCI-H1563; first compound 2.53 µM): 0.877
relative viability (NCI-H1563; first compound 8 µM): 0.832
relative viability (EBC-1; first compound 0.08 µM): 0.0944
relative viability (EBC-1; first compound 0.253 µM): 0.102
relative viability (EBC-1; first compound 0.8 µM): 0.0973
relative viability (EBC-1; first compound 2.53 µM): 0.104
relative viability (EBC-1; first compound 8 µM): 0.12
relative viability (NCI-H1299; first compound 0.08 µM): 1.11
relative viability (NCI-H1299; first compound 0.253 µM): 1.12
relative viability (NCI-H1299; first compound 0.8 µM): 1.07
relative viability (NCI-H1299; first compound 2.53 µM): 1.07
relative viability (NCI-H1299; first compound 8 µM): 1.04
relative viability (A549; first compound 0.08 µM): 0.891
relative viability (A549; first compound 0.253 µM): 0.988
relative viability (A549; first compound 0.8 µM): 1.04
relative viability (A549; first compound 2.53 µM): 0.949
relative viability (A549; first compound 8 µM): 0.728
relative viability (SW 900; first compound 0.08 µM): 0.877
relative viability (SW 900; first compound 0.253 µM): 0.956
relative viability (SW 900; first compound 0.8 µM): 0.668
relative viability (SW 900; first compound 2.53 µM): 0.746
relative viability (SW 900; first compound 8 µM): 1.03
relative viability (NCI-H1623; first compound 0.08 µM): 0.505
relative viability (NCI-H1623; first compound 0.253 µM): 0.879
relative viability (NCI-H1623; first compound 0.8 µM): 0.81
relative viability (NCI-H1623; first compound 2.53 µM): 0.88
relative viability (NCI-H1623; first compound 8 µM): 0.889
relative viability (IA-LM; first compound 0.08 µM): 1.16
relative viability (IA-LM; first compound 0.253 µM): 1.15
relative viability (IA-LM; first compound 0.8 µM): 1.16
relative viability (IA-LM; first compound 2.53 µM): 1.19
relative viability (IA-LM; first compound 8 µM): 1.17
relative viability (Calu-6; first compound 0.08 µM): 0.887
relative viability (Calu-6; first compound 0.253 µM): 0.925
relative viability (Calu-6; first compound 0.8 µM): 0.819
relative viability (Calu-6; first compound 2.53 µM): 0.914
relative viability (Calu-6; first compound 8 µM): 0.822
relative viability (NCI-H2342; first compound 0.08 µM): 0.92
relative viability (NCI-H2342; first compound 0.253 µM): 0.973
relative viability (NCI-H2342; first compound 0.8 µM): 0.931
relative viability (NCI-H2342; first compound 2.53 µM): 0.975
relative viability (NCI-H2342; first compound 8 µM): 1.07

O=c1[nH]c2ccccc2n1C1CCN(CCCC(c2ccc(F)cc2)c2ccc(F)cc2)CC1 [Pimozide] + COc1cccc2cc(-c3nc([C@H]4CC[C@H](C(=O)O)CC4)n4ncnc(N)c34)[nH]c12 [OSI-027] (partner 0.5 µM)
relative viability (NCI-H1563; first compound 0.08 µM): 0.75
relative viability (NCI-H1563; first compound 0.253 µM): 0.767
relative viability (NCI-H1563; first compound 0.8 µM): 0.817
relative viability (NCI-H1563; first compound 2.53 µM): 0.664
relative viability (NCI-H1563; first compound 8 µM): 0.719
relative viability (NCI-H1648; first compound 0.08 µM): 0.275
relative viability (NCI-H1648; first compound 0.253 µM): 0.264
relative viability (NCI-H1648; first compound 0.8 µM): 0.272
relative viability (NCI-H1648; first compound 8 µM): 0.279
relative viability (SW 900; first compound 0.08 µM): 0.879
relative viability (SW 900; first compound 0.253 µM): 0.581
relative viability (SW 900; first compound 0.8 µM): 0.273
relative viability (SW 900; first compound 2.53 µM): 0.475
relative viability (SW 900; first compound 8 µM): 0.384
relative viability (NCI-H1623; first compound 0.08 µM): 0.348
relative viability (NCI-H1623; first compound 0.253 µM): 0.48
relative viability (NCI-H1623; first compound 0.8 µM): 0.374
relative viability (NCI-H1623; first compound 2.53 µM): 0.416
relative viability (NCI-H1623; first compound 8 µM): 0.389
relative viability (NCI-H522; first compound 0.08 µM): 0.682
relative viability (NCI-H522; first compound 0.253 µM): 0.586
relative viability (NCI-H522; first compound 0.8 µM): 0.54
relative viability (NCI-H522; first compound 2.53 µM): 0.829
relative viability (NCI-H522; first compound 8 µM): 0.682
relative viability (NCI-H2342; first compound 0.08 µM): 0.63
relative viability (NCI-H2342; first compound 0.253 µM): 0.623
relative viability (NCI-H2342; first compound 0.8 µM): 0.615
relative viability (NCI-H2342; first compound 2.53 µM): 0.543
relative viability (NCI-H2342; first compound 8 µM): 0.599

O=c1[nH]c2ccccc2n1C1CCN(CCCC(c2ccc(F)cc2)c2ccc(F)cc2)CC1 [Pimozide] + Cc1cc(Nc2cc(N3CCN(C)CC3)nc(Sc3ccc(NC(=O)C4CC4)cc3)n2)n[nH]1 [Tozasertib] (partner 0.1 µM)
relative viability (NCI-H1648; first compound 0.08 µM): 0.574
relative viability (NCI-H1648; first compound 0.253 µM): 0.398
relative viability (NCI-H1648; first compound 0.8 µM): 0.353
relative viability (NCI-H1648; first compound 8 µM): 0.53
relative viability (SW 900; first compound 0.08 µM): 0.633
relative viability (SW 900; first compound 0.253 µM): 0.606
relative viability (SW 900; first compound 0.8 µM): 0.54
relative viability (SW 900; first compound 2.53 µM): 0.618
relative viability (SW 900; first compound 8 µM): 0.563
relative viability (NCI-H1623; first compound 0.253 µM): 0.439
relative viability (NCI-H1623; first compound 0.8 µM): 0.375
relative viability (NCI-H1623; first compound 2.53 µM): 0.456
relative viability (NCI-H1623; first compound 8 µM): 0.39
relative viability (NCI-H522; first compound 0.08 µM): 0.509
relative viability (NCI-H522; first compound 0.253 µM): 0.47
relative viability (NCI-H522; first compound 0.8 µM): 0.573
relative viability (NCI-H522; first compound 2.53 µM): 0.485
relative viability (NCI-H522; first compound 8 µM): 0.525
relative viability (NCI-H2342; first compound 0.08 µM): 0.51
relative viability (NCI-H2342; first compound 0.253 µM): 0.517
relative viability (NCI-H2342; first compound 0.8 µM): 0.505
relative viability (NCI-H2342; first compound 2.53 µM): 0.488
relative viability (NCI-H2342; first compound 8 µM): 0.576

Reference: the supplement of paper PMC10307832
